The source of these data is patent US4302461A, “Antiinflammatory 5-substituted-2,3-diarylthiophenes” (E. I. Du Pont de Nemours and Company, priority 1980, dated 1981).

What is called ED50 is the midpoint of the dose-response relation.

The structures appear in SMILES notation.

For one assay, the system named is Established Adjuvant-Induced Arthritis in Rats. Nature of the assay: Established Adjuvant-Induced Arthritis in Rats (uninjected left hind paw volume). The following applies: Rattus norvegicus, 168 h; oral gavage once daily for 7 days (days 14-20); estimated by inspection of dose-response regression lines; read-out: ED50 % Decrease From Control Paw Volume. It is filed as in vivo, Lewis (Wistar) male rats.
With `Fc1ccc(-c2cc(SC(F)(F)F)sc2-c2ccc(F)cc2)cc1` [Example 1, 2,3-bis(4-Fluorophenyl)-5-(trifluoromethylthio)thiophene], the 50% effective dose (ED50) is 3.5 mg/kg.

With `O=S(=O)(c1cc(-c2ccc(F)cc2)c(-c2ccc(F)cc2)s1)C(F)(F)F` [Example 2, 2,3-bis(4-Fluorophenyl)-5-(trifluoromethylsulfonyl)thiophene], the ED50 is 10 mg/kg.

On to `Fc1ccc(-c2sc(SC(F)(F)F)cc2-c2ccc(Cl)cc2)cc1` [Example 7], for which the 50% effective dose (ED50) was 4 mg/kg.

Regarding `Fc1ccc(-c2cc(SC(F)(F)F)sc2-c2ccc(Cl)cc2)cc1` [Example 9], the median effective dose (ED50) is 10 mg/kg.

Turning to `COc1ccc(-c2cc(SC(F)(F)F)sc2-c2ccc(S(C)(=O)=O)cc2)cc1` [Example 21], the median effective dose (ED50) is 9 mg/kg.

Take `CSc1ccc(-c2sc(SC(F)(F)F)cc2-c2ccc(F)cc2)cc1` [Example 22]: the ED50 was 0.4 mg/kg.

For `CSc1ccc(-c2cc(SC(F)(F)F)sc2-c2ccc(F)cc2)cc1` [Example 24], the ED50 is 0.15 mg/kg.

`CCCCC1C(=O)N(c2ccccc2)N(c2ccccc2)C1=O` [Phenylbutazone, reference compound]: the ED50 is 10 mg/kg.

The assay is the same for the next values; noted with them: Rattus norvegicus, 504 h; Daily Oral Dose 20 mg/kg, once daily for 7 days (days 14-20), paw volume on day 21; read-out: Percent Decrease from Control Paw Volume.
On to `FC(F)(F)Sc1cc(-c2ccccc2)c(-c2ccccc2)s1` [Example 5], for which the inhibition in vivo at 20 mg/kg was 33%.

For `COc1ccc(-c2cc(SC(F)(F)F)sc2-c2ccc(OC)cc2)cc1` [Example 6], the inhibition in vivo at 20 mg/kg came to 32%.

Still in this assay, the particulars now being: Rattus norvegicus, 504 h; Daily Oral Dose 27 mg/kg, once daily for 7 days (days 14-20), paw volume on day 21; read-out: Percent Decrease from Control Paw Volume.
For `COc1ccc(-c2cc(SC)sc2-c2ccc(OC)cc2)cc1` [Example 3, 2,3-bis(4-Methoxyphenyl)-5-(methylthio)thiophene], the inhibition in vivo at 27 mg/kg was determined as 43%.

`COc1ccc(-c2cc(SC(F)(F)C(F)F)sc2-c2ccc(OC)cc2)cc1` [Example 4, 2,3-bis(4-Methoxyphenyl)-5-(1,1,2,2-tetrafluoroethylthio)thiophene]: the inhibition in vivo at 27 mg/kg came out at 11%.

Consider `CSc1cc(-c2ccc(F)cc2)c(-c2ccc(F)cc2)s1` [Example 8], for which the inhibition in vivo at 27 mg/kg amounted to 25%.

Take `Fc1ccc(-c2cc(SC(F)(F)C(F)F)sc2-c2ccc(F)cc2)cc1` [Example 10]: the inhibition in vivo at 27 mg/kg is 28%.

As to `COc1ccc(-c2cc(S(=O)(=O)C(F)(F)C(F)F)sc2-c2ccc(OC)cc2)cc1` [Example 11], the inhibition in vivo at 27 mg/kg was determined as 23%.

In the case of `O=S(=O)(c1cc(-c2ccc(F)cc2)c(-c2ccc(F)cc2)s1)C(F)(F)C(F)F` [Example 12], the inhibition in vivo at 27 mg/kg is 34%.

The assay is the same for the next values; noted with them: Rattus norvegicus, 504 h; Daily Oral Dose 81 mg/kg, once daily for 7 days (days 14-20), paw volume on day 21; read-out: Percent Decrease from Control Paw Volume.
For `CCCCCCSc1cc(-c2ccc(OC)cc2)c(-c2ccc(OC)cc2)s1` [Example 20], the inhibition in vivo at 81 mg/kg was 39%.

Staying with this assay, now noted: Rattus norvegicus, po, 168 h, read-out: ED50 % Decrease From Control Paw Volume.
For `CC(=O)Oc1ccccc1C(=O)O` [Aspirin, reference compound], the ED50 was found to be 270 mg/kg.

For the molecule `COc1ccc2c(c1)c(CC(=O)O)c(C)n2C(=O)c1ccc(Cl)cc1` [Indomethacin, reference compound], the 50% effective dose (ED50) amounted to 0.25 mg/kg.

The same assay, now with this note: at the dose level tested.
Consider `COc1ccc(-c2cc(SC(F)(F)C(F)F)sc2-c2ccc(OC)cc2)cc1` [Example 4, 2,3-bis(4-Methoxyphenyl)-5-(1,1,2,2-tetrafluoroethylthio)thiophene], for which the “antiinflammatory activity (statistical significance)” value is “did not exhibit statistically significant antiinflammatory activity”.
